Data as given in patent US12583911B2, “Human immunodeficiency virus GP120 binding proteins” (ViiV Healthcare UK (No.5) Limited, priority 2022, dated 2026).

Tests used:
[1] = Melting temperature (Tm) of soluble CD4 domains, Prometheus System; type: physicochemical; conditions: soluble CD4 domain with C-terminal 6xHis tag
Procedure: The best performing variants (SEQ ID NOs: 5-21) were fused with 6×His tag at their C-termini, expressed and purified from mammalian cells using methods as described in Example 1, except that purification was via a Ni-NTA resin (Cytiva, Marlborough MA) instead of Mabselect SuRe column, with standard protocol from the vendor.
These purified CD4 D1 variants (with C-terminal 6xHis tag) were then evaluated to determine their melting temperature (Tm, using Prometheus System, NanoTemper, München Germany), which indicates thermal stability, as well as their anti-viral activity against HIV-1 pseudotyped virus (see Example 2 above for methods using ACTOne cells).

[2] = system: HIV-2 Env-pseudotypes (HIV-2-AID, HIV-2-ATM88, HIV-2-HCC-01); assay: PSV assay (ACTOne cells), HIV-2 envelopes; type: cell-based
Procedure: (§1) The anti-viral activity of the antigen binding proteins was measured in a pseudotyped virus (PSV) assay.
(§2) PSV was produced in HEK-293T cells (ATCC, Manassas VA) by co-transfecting expression plasmids encoding the HIV-1 gp160 envelope gene and an HIV-1 backbone plasmid using TRANSIT-2020 transfection reagent (Mirus Bio, Madison WI). A panel of HIV-1 PSVs expressing different gp160 envelope trimers was generated to evaluate the effectiveness of the antigen binding proteins of the invention against a wide spectrum of HIV-1 strains.
(§3) The genome of PSV used in this assay contains a luciferase gene that is expressed once the virus enters cells. Accordingly, the luminescence signal (after adding a substrate of luciferase) can be used to determine the level of viral infection.
(§4) The 50% tissue culture infectious dose (TCID) of a single thawed aliquot of each batch of PSV was determined in ACTOne cells. The ACTOne cell-line used in this assay was derived in-house from a genetically engineered 293T cell clone that expresses CD4, CXCR4, and CCR5. Cells were maintained in growth medium composed of Dulbecco's modified Eagle's medium (DMEM, Life Technologies) at 37° C. in a humidified 5% CO2-95% air environment. Cell monolayers were split by treatment with Trypsin-EDTA (0.05%).
(§5) To run the anti-viral assay, ACTOne cells were detached by treating the cell culture flask with trypsin (trypsinization) and resuspended in growth medium containing 2% of DMSO to a density of 2.5×10^5 cells/ml. One hundred μl of such cells was added to 10 μl of antigen binding protein pre-loaded in a 96-well plate. Ninety μl of PSV was then added to each well. The assay plates were incubated at 37° C. in a humidified incubator at 5% CO2 level. Plates were developed after 72 hours of incubation by adding 50 μl of BRIGHTGLO luciferase reagent (Promega, Madison WI) to each well, and transferring the plates to an ENVISION multilabel plate reader (PerkinElmer, Waltham MA) to measure the luminescence and determine the level of virus that had infected the cells. The higher the luminescence signal, the higher the level of infection.
HIV-2 differs from HIV-1 in that it originates from the transmission of simian immunodeficiency virus (SIV) from sooty mangabeys (SIVsmm) to human (Gao et al, J Virol. 1994; 68 (11): 7433-7447) whilst HIV-1 stems from the transmission from chimpanzees and western gorillas (HIV-1 group M and O, respectively). HIV-2 can also cause AIDS but is far less pathogenic and wide-spread than HIV-1 (de Silva et al, Trends Microbiol. 2008; 16 (12): 588-595; Da Silva et al, AIDS. 2008; 22 (10): 1195-1202). Though also using CD4 for infection (Sattentau et al, AIDS. 1988; 2 (2): 101-105), HIV-2 shares only 40% identity in the gp160 amino acid sequence with HIV-1, and is therefore less sensitive or insensitive to HIV-1 envelope-directed bnAbs (Kong et al, JVI 2012; 86 (2): 947-960).

[3] = system: panel of HIV-1 envelopes (pseudotyped HIV-1 virus); assay: PSV assay (ACTOne cells), HIV-1 envelopes; type: cell-based
Procedure: as §1, §2, §3, §4, §5

Substance: D1m-E13C-I70C: soluble CD4 D1 variant of mD1.22 with E13C and I70C, SEQ ID NO:13, 6xHis tagged
- Tm (° C.) [1]: 78.8 °C

Substance: D1m-E87G: soluble CD4 D1 variant of mD1.22 with E87G, SEQ ID NO:8, 6xHis tagged [Molecule D1m-E87G]
- Tm (° C.) [1]: 71.9 °C

Substance: D1m-E91H: soluble CD4 D1 variant of mD1.22 with E91H, SEQ ID NO:7, 6xHis tagged [Molecule D1m-E91H]
- Tm (° C.) [1]: 72.6 °C

Substance: D1m-E91Q: soluble CD4 D1 variant of mD1.22 with E91Q, SEQ ID NO:6, 6xHis tagged [Molecule D1m-E91Q]
- Tm (° C.) [1]: 72.4 °C

Substance: D1m-H27C-G38C: soluble CD4 D1 variant of mD1.22 with H27C and G38C, SEQ ID NO:14, 6xHis tagged
- Tm (° C.) [1]: 90.1 °C

Substance: D1m-K8C-G99C: soluble CD4 D1 variant of mD1.22 with K8C and G99C, SEQ ID NO:11, 6xHis tagged [Molecule D1m-K8C-G99C]
- Tm (° C.) [1]: 88.8 °C

Substance: D1m-K8C-G99C_Fc: CD4 D1m-K8C-G99C domain fused to human Fc, SEQ ID NO:158; CD4 control
- IC50 ([2]; envelope HIV-2-AID, PSV assay, ACTOne cells): 24.4 nM
- IC50 ([2]; envelope HIV-2-ATM88, PSV assay): 2.72 nM
- IC50 ([2]; envelope HIV-2-HCC-01, ACTOne cells): > 300 nM
- IC50 ([2]; envelope HIV-2-HCC-01, PSV assay): > 300 nM
- IC50 ([3]; envelope 93UG065, PSV assay): 143 nM
- IC50 ([3]; envelope 246F3, PSV assay): 4.28 nM
- IC50 ([3]; envelope 0260.v5.c36, PSV assay): 119 nM
- IC50 ([3]; envelope 398F1, PSV assay): 90.5 nM
- IC50 ([3]; envelope 928_28, PSV assay): 0.77 nM
- IC50 ([3]; envelope 3326_V4_C3): > 500 nM
- IC50 ([3]; envelope 3326_V4_C3, PSV assay): > 500 nM
- IC50 ([3]; envelope 3468_V1_C12): 64.2 nM
- IC50 ([3]; envelope 3468_V1_C12, PSV assay): 64.2 nM
- IC50 ([3]; envelope 3637_V5_C3): > 500 nM
- IC50 ([3]; envelope 3637_V5_C3, PSV assay): > 500 nM
- IC50 ([3]; envelope 6471_V1_C16, PSV assay): 5.07 nM
- IC50 ([3]; envelope 25710, PSV assay): 1.32 nM
- IC50 ([3]; envelope 42368): 1.58 nM
- IC50 ([3]; envelope 42368, PSV assay): 1.58 nM
- IC50 ([3]; envelope 620345_C1, PSV assay): 99.3 nM
- IC50 ([3]; envelope BJOX2000, PSV assay): 2.34 nM
- IC50 ([3]; envelope CAP45.2.00.G3): 20.5 nM
- IC50 ([3]; envelope CAP45.2.00.G3, PSV assay): 20.5 nM
- IC50 ([3]; envelope CC1/85): 1.98 nM
- IC50 ([3]; envelope CC1/85, PSV assay): 1.98 nM
- IC50 ([3]; envelope CE0217, PSV assay): 2.53 nM
- IC50 ([3]; envelope CE1176, PSV assay): 4.22 nM
- IC50 ([3]; envelope CH119, PSV assay): 3.25 nM
- IC50 ([3]; envelope CNE8, PSV assay): 347 nM
- IC50 ([3]; envelope CNE55, PSV assay): 41.8 nM
- IC50 ([3]; envelope JR-CSF, PSV assay): 5.47 nM
- IC50 ([3]; envelope JRFL, PSV assay): 1.12 nM
- IC50 ([3]; envelope Q461_E2): 11.8 nM
- IC50 ([3]; envelope Q461_E2, PSV assay): 11.8 nM
- IC50 ([3]; envelope T278.50): 1.43 nM
- IC50 ([3]; envelope T278.50, PSV assay): 1.43 nM
- IC50 ([3]; envelope TH976_17, PSV assay): 39 nM
- IC50 ([3]; envelope TRO11, PSV assay): 147 nM
- IC50 ([3]; envelope X1632, PSV assay): 1.82 nM
- IC50 ([3]; envelope X2088.C9): 9.2 nM
- IC50 ([3]; envelope X2088.C9, PSV assay): 9.2 nM
- IC50 ([3]; envelope X2278, PSV assay): 44.6 nM
- IC50 ([3]; envelope YU-2, PSV assay): 0.2 nM
- IC50 ([3]; envelope ZM106.9): 15.1 nM
- IC50 ([3]; envelope ZM106.9, PSV assay): 15.1 nM
